Measurements from patent publication US10604514B2, “6-(5-membered heteroaryl)isoquinolin-3-yl carboxamides and preparation and use thereof” (Samumed, LLC, priority 2017, dated 2020).
Where two headings read alike, the source gives them in different places.

Columns and labels:
DYRK1A kinase = DYRK1A kinase (Homo sapiens (Human), UniProt Q13627); assay: DYRK1A kinase assay (Ser/Thr 18 peptide Z-lyte, FRET)
IL-6 = IL-6 inhibition in LPS-stimulated human peripheral blood mononuclear cells (HTRF); format: cell-based; conditions: Homo sapiens, PBMC; for EC50: IL-6, LPS-stimulated huPBMCs, HTRF; for inhibition at 10 µM: read-out: percent value in parentheses below EC50 >10
How it was run: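 Fresh human PBMCs (5000 cells/well, 1% FBS RPMI) preincubated with compound (10-point 1:3 series from 10 μM, 0.25% DMSO) 2 h at 37 °C, then stimulated with 50 ng/mL E. coli LPS for 22 h. IL-6 by HTRF 665/620 ratio; DMSO-normalized, EC50 from 4-parameter fit.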

GSK3β kinase = GSK3β kinase (Homo sapiens (Human), UniProt P49841); assay: GSK3β kinase assay (Ser/Thr 09 peptide Z-lyte, FRET); format: biochemical; conditions: method text calls the value IC50;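 further: Coumarin/fluorescein emission ratio converted to percent phosphorylation against unphosphorylated (0%) and phosphorylated (100%) controls, 1 h compound incubation at room temperature, 11-point threefold dilutions from 10 µM, run in duplicate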
[1] = system: Tau phosphorylation at Ser396 (pSer396), SH-SY5Y cells; assay: Tau phosphorylation at Ser396 (pSer396) in SH-SY5Y cells, ELISA/western blot; format: cell-based, human; conditions: Homo sapiens; SH-SY5Y cells, overnight (16-18 h); read-out: pSer396 Tau EC50;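 further: cell lysates probed for reduced Tau pSer396 via ELISA (colorimetric) or western blot (chemiluminescence), both with one shared pSer396 antibody, EC50 for lowering phosphorylation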
[2] = system: LL29 cells (primary human fibroblasts derived from IPF patients), α-smooth muscle actin; assay: Inhibition of fibrotic process: αSMA in TGF-β1-treated primary human fibroblasts from IPF patients (LL29 cells); format: cell-based; conditions: Homo sapiens, Fibroblast; for EC50: 96 h, % αSMA-positive LL29 cells, TGF-β1 20 ng/mL, 4 days
How it was run: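 IPF-patient lung fibroblasts (LL29) were stimulated with TGF-β1 (20 ng/mL) in 1% FBS medium with compound (11-point 1:2 series, 0.1% DMSO) for 4 days at 37 °C. Fixed cells were immunostained for αSMA and imaged, excluding SYTOX-positive dead cells. The % αSMA-positive cells was normalized to TGF-β1/DMSO control wells.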

[3] = system: Wnt activity (Sp5-Luc reporter in SW480 colon carcinoma cells); assay: Wnt activity screening assay (Sp5-Luc reporter gene assay); format: cell-based, human; conditions: Homo sapiens; for EC50: Sp5-Luc reporter, SW480 cells, 36 to 48 hours; for inhibition at 10 µM: SW480, read-out: percent inhibition at 10 μM
How it was run: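 SW480 cells stably carrying an Sp5 promoter (eight TCF/LEF sites)-firefly luciferase reporter were plated in DMEM with 1% FBS and treated with a 10-point, 1:3 dilution series from 10 μM (0.1% DMSO) for 36 to 48 h at 37° C. Luminescence was normalized to DMSO controls, and EC50 came from four-parameter nonlinear regression.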

[4] = system: SW480 colon carcinoma cells; assay: Cell viability assay (CellTiter-Glo) in SW480 cells; format: cell-based, human; conditions: Homo sapiens; for EC50: 96 h, cell viability, SW480 cells, four days, CellTiter-Glo; for inhibition at 10 µM: SW480, read-out: percent inhibition at 10 μM;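 on all read-outs here: SW480 cells stably carrying an Sp5-luciferase TCF/LEF reporter, luminescent ATP signal as viability measure, DMSO-treated cells as control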
[5] = DYRK1A kinase, method text calls the value IC50

GSK3β kinase, sequence (P49841 whole entry): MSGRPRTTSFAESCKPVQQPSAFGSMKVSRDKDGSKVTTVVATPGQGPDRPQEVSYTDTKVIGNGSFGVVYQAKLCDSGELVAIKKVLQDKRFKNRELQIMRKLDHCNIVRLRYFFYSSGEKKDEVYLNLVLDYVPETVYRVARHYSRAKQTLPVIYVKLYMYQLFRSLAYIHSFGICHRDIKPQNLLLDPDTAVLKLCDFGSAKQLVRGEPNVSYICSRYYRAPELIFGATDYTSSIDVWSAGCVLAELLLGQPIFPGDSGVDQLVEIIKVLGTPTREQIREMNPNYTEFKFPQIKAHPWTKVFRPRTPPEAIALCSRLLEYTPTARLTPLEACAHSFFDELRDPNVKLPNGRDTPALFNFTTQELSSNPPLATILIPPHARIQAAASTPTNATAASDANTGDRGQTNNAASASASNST

| SMILES | EC50 (DYRK1A kinase; [5]) | EC50 (IL-6) | EC50 (GSK3β kinase) | EC50 [1] | EC50 [2] | EC50 [3] | EC50 [4] | inhibition at 10 µM (IL-6) | EC50 (DYRK1A kinase) | inhibition at 10 µM [3] | inhibition at 10 µM [4] | inhibition at 10 µM ([2]; read-out: percent inhibition at 10 μM) |
| --- | --- | --- | --- | --- | --- | --- | --- | --- | --- | --- | --- | --- |
| Cc1ncc(-c2ccc3cnc(NC(=O)[C@H]4CC[C@H](N(C)C5COC5)CC4)cc3c2)o1 [Compound 37, trans-4-(methyl(oxetan-3-yl)amino)-N-(6-(2-methyloxazol-5-yl)isoquinolin-3-yl)cyclohexane-1-carboxamide] | 7 nM | 1340 nM | 138 nM | 497 nM | 244 nM | 4040 nM | 6890 nM | – | – | – | – | – |
| Cc1nnc(-c2ccc3cnc(NC(=O)C4CCN(CCC(F)(F)F)CC4)cc3c2)s1 [Compound 38, N-(6-(5-Methyl-1,3,4-thiadiazol-2-yl)isoquinolin-3-yl)-1-(3,3,3-trifluoropropyl)piperidine-4-carboxamide] | 6 nM | > 10000 nM | 9 nM | 67 nM | 112 nM | 743 nM | 1080 nM | 3.2% | – | – | – | – |
| [2H]C1([2H])OC([2H])([2H])C([2H])([2H])N(CC(=O)Nc2cc3cc(-c4cnn(C)c4)ccc3cn2)C1([2H])[2H] [Compound 39, N-(6-(1-Methyl-1H-pyrazol-4-yl)isoquinolin-3-yl)-2-(morpholino-d8) acetamide] | – | 9400 nM | 96 nM | 538 nM | 2590 nM | > 10000 nM | > 10000 nM | – | 15 nM | 36.3% | 27.3% | – |
| [2H]C1([2H])OC([2H])([2H])C([2H])([2H])N(CC(=O)Nc2cc3cc(-c4cnc(C)o4)ccc3cn2)C1([2H])[2H] [Compound 40, N-(6-(2-Methyloxazol-5-yl)isoquinolin-3-yl)-2-(morpholino-d8)acetamide] | – | 9700 nM | 120 nM | 688 nM | 3710 nM | > 10000 nM | > 10000 nM | – | 29 nM | 29.6% | 27% | – |
| [2H]C1([2H])OC([2H])([2H])C([2H])([2H])N(CC(=O)Nc2cc3cc(-c4cnc(C)s4)ccc3cn2)C1([2H])[2H] [Compound 41, N-(6-(2-Methylthiazol-5-yl)isoquinolin-3-yl)-2-(morpholino-d8)acetamide] | – | > 10000 nM | 203 nM | 869 nM | 1220 nM | > 10000 nM | > 10000 nM | 9.4% | 27 nM | 29.7% | 10.7% | – |
| C[C@H]1CN(C)CCN1C(=O)Nc1cc2cc(-c3cnn(C)c3)ccc2cn1 [Compound 42, (S)-2,4-Dimethyl-N-(6-(1-methyl-1H-pyrazol-4-yl)isoquinolin-3-yl) piperazine-1-carboxamide] | 12 nM | > 10000 nM | 4670 nM | > 10000 nM | > 10000 nM | > 10000 nM | > 10000 nM | 6.4% | – | 25.5% | 26.5% | 6.4% |
| Cc1ncc(-c2ccc3cnc(NC(=O)[C@H]4CC[C@H](CO)CC4)cc3c2)o1 [Compound 43, trans-4-(hydroxymethyl)-N-(6-(2-methyloxazol-5-yl)isoquinolin-3-yl)cyclohexane-1-carboxamide] | 2 nM | 1070 nM | 66 nM | 362 nM | 230 nM | 239 nM | 4980 nM | – | – | – | – | – |
| Cc1ncc(-c2ccc3cnc(NC(=O)[C@H]4CC[C@H](N(C)CC(F)F)CC4)cc3c2)o1 [Compound 44, trans-4-((2,2-Difluoroethyl)(methyl)amino)-N-(6-(2-methyloxazol-5-yl)isoquinolin-3-yl)cyclohexane-1-carboxamide] | 5 nM | 1130 nM | 65 nM | 445 nM | 247 nM | 799 nM | 2800 nM | – | – | – | – | – |
| Cc1nnc(-c2ccc3cnc(NC(=O)C4CCN(C)CC4)cc3c2)s1 [Compound 46, 1-Methyl-N-(6-(5-methyl-1,3,4-thiadiazol-2-yl)isoquinolin-3-yl)piperidine-4-carboxamide] | – | 3760 nM | 23 nM | 91 nM | 640 nM | 730 nM | 1040 nM | – | 6 nM | – | – | – |
| Cc1ncc(-c2ccc3cnc(NC(=O)C4CCN(C)CC4)cc3c2)o1 [Compound 47, 1-Methyl-N-(6-(2-methyloxazol-5-yl)isoquinolin-3-yl)piperidine-4-carboxamide] | 6 nM | 945 nM | 65 nM | 174 nM | 262 nM | 917 nM | 751 nM | – | – | – | – | – |
| COC1CCN(CC(=O)Nc2cc3cc(-c4cnc(C)o4)ccc3cn2)CC1 [Compound 48, 2-(4-Methoxypiperidin-1-yl)-N-(6-(2-methyloxazol-5-yl)isoquinolin-3-yl) acetamide] | 20 nM | 9070 nM | 54 nM | 359 nM | 718 nM | 820 nM | 3890 nM | – | – | – | – | – |
| COC1CCN(CC(=O)Nc2cc3cc(-c4nnc(C)s4)ccc3cn2)CC1 [Compound 49, 2-(4-Methoxypiperidin-1-yl)-N-(6-(5-methyl-1,3,4-thiadiazol-2-yl)isoquinolin-3-yl)acetamide] | 21 nM | > 10000 nM | 6 nM | 135 nM | 643 nM | > 10000 nM | 2900 nM | 9% | – | 32.9% | – | – |
| Cc1ncc(-c2ccc3cnc(NC(=O)N4CCC(N5CCOCC5)CC4)cc3c2)o1 [Compound 50, N-(6-(2-Methyloxazol-5-yl)isoquinolin-3-yl)-4-morpholinopiperidine-1-carboxamide] | 20 nM | 9200 nM | 218 nM | 779 nM | 1470 nM | 28 nM | > 10000 nM | – | – | – | 43% | – |
| Cc1ncc(-c2ccc3cnc(NC(=O)N4CC[C@H](N)[C@@H](F)C4)cc3c2)o1 [Compound 51, (3S,4S)-4-Amino-3-fluoro-N-(6-(2-methyloxazol-5-yl)isoquinolin-3-yl) piperidine-1-carboxamide] | 14 nM | 3240 nM | 349 nM | 656 nM | 2490 nM | 36 nM | 3940 nM | – | – | – | – | – |
| Cc1ncc(-c2ccc3cnc(NC(=O)N4CCC(N(C)CC(F)F)CC4)cc3c2)o1 [Compound 52, 4-((2,2-Difluoroethyl)(methyl)amino)-N-(6-(2-methyloxazol-5-yl)isoquinolin-3-yl)piperidine-1-carboxamide] | 9 nM | 3700 nM | 156 nM | 1100 nM | 1730 nM | 923 nM | 3970 nM | – | – | – | – | – |
| Cc1ncc(-c2ccc3cnc(NC(=O)N4CC[C@H](NC(C)C)[C@@H](F)C4)cc3c2)o1 [Compound 53, (3 S,4S)-3-Fluoro-4-(isopropylamino)-N-(6-(2-methyloxazol-5-yl)isoquinolin-3-yl)piperidine-1-carboxamide] | 38 nM | 9360 nM | 366 nM | 2300 nM | 1580 nM | 2810 nM | 4510 nM | – | – | – | – | – |
| COC1CCN(CC(=O)Nc2cc3cc(-c4cn(C)nn4)ccc3cn2)CC1 [Compound 54, 2-(4-Methoxypiperidin-1-yl)-N-(6-(1-methyl-1H-1,2,3-triazol-4-yl)isoquinolin-3-yl)acetamide] | 7 nM | 9630 nM | 6 nM | 97 nM | 412 nM | 943 nM | 3210 nM | – | – | – | – | – |
| Cc1ncc(-c2cc3cc(NC(=O)[C@H]4CC[C@H](N5CCOCC5)CC4)ncc3cc2F)o1 [Compound 55, trans-N-(7-Fluoro-6-(2-methyloxazol-5-yl)isoquinolin-3-yl)-4-morpholinocyclohexane-1-carboxamide] | 6 nM | > 10000 nM | 88 nM | 178 nM | 678 nM | 3700 nM | 1300 nM | 18.3% | – | – | – | – |
